Results published in patent publication US9212130B2, “Heterocyclic derivative and pharmaceutical composition comprising the same” (SHIONOGI & CO., LTD., priority 2010, dated 2015).

Tests used:
[1] = target: human P2X3 receptor (Homo sapiens (Human), UniProt P56373); assay: Evaluation of human P2X3 receptor inhibitory activity (ATP-induced Fluo-3 fluorescence, FDSS 3000); type: cell-based; settings: C6BU-1 cell transfected with human P2X3 receptor gene
Protocol: The plate was placed in High-Throughput Screening System FDSS 3000 (Hamamatsu Photonics K.K.). […] Five minutes after, 50 nM ATP solution (50 μL) prepared by dilution with the dilution buffer was dispensed through the built-in automatic dispenser, and the measurement of fluorescence intensity was continued for 3 min. For each well, the specific maximum fluorescence intensity was calculated as the ratio of the maximum fluorescence intensity after addition of the ATP solution to the fluorescence intensity at the starting of the measurement. […] FDSS software (Hamamatsu Photonics K.K.) was used for calculation of the specific maximum fluorescence intensity. IC50 was calculated using Microsoft Excel (Microsoft. Corporation) and XLfit (idbs Ltd.)
The aforementioned in mM, μM and nM are each means mmol/L, μmol/L and nmol/L, respectively.
In tables, μM means μmol/L.

[2] = Bioavailability (BA) test; type: in vivo; settings: plasma; Mice or SD rats; oral 0.3 to 30 mg/kg vs intravenous 0.5 to 10 mg/kg; from AUCs
Protocol: Materials and Methods for Experiment of BA
• (1) Animals: Mice or SD rats were used • (2) Breeding conditions: Mice or SD rats were allowed to freely take solid food and sterilized tap water. • (3) Dose and grouping: orally or intravenously administered at a predetermined dose; grouping was as follows (Dose depends on the compound) Oral administration: 0.3 to 30 mg/kg (n=2 to 3) Intravenous administration: 0.5 to 10 mg/kg (n=2 to 3) • (4) Preparation of dosing solution: for oral administration, in a solution or a suspension state; for intravenous administration, in a solubilized state • (5) Administration method: in oral administration, forcedly administer into ventriculus with oral probe; in intravenous administration, administer from caudal vein with a needle-equipped syringe • (6) Evaluation items: blood was collected over time, and the plasma concentration of drug was measured by LC/MS/MS • (7) Statistical analysis: regarding the transition of the plasma concentration of the present compound, the area under the plasma concentration-time curve (AUC) was calculated by non-linear least squares program WinNonlin (Registered trade name), and the bioavailability (BA) was calculated from the AUCs of the oral administration group and intravenous administration group

[3] = Solubility test; type: physicochemical; settings: 25 °C, other biorelevant, kinetic from dmso stock
Protocol: The solubility of a compound was determined under a condition in which 1% DMSO was added. 10 mmol/L compound solution was prepared using DMSO, and then 6 μL of the compound solution was added to 594 μL of artificial intestinal juice in […] (to 250 mL of 0.2 mol/L potassium dihydrogen phosphate reagent solution was added 118 mL of 0.2 mol/L NaOH reagent solution and water to provide a final volume of 1000 mL). After standing at 25 degrees Celsius for 16 hours, the mixed solution was filtrated with suction. The filtrate was diluted twice with methanol/water (1/1) and then a concentration in the filtration was measured with HPLC or LC/MS/MS by the absolute calibration method.

[4] = Metabolism stability test (pooled human hepatic microsomes); type: in vitro ADME; settings: human liver microsomes 0.5 mg protein/mL; 37° C., 30 minutes; 1 mmol/L NADPH; compound concentration 0.5 μmol/L
Protocol: Using commercially available pooled human hepatic microsomes, a test compound was reacted for a constant time, a remaining rate was calculated by comparing a reacted sample and an unreacted sample, thereby, a degree of metabolism in liver was assessed.
A reaction was performed (oxidative reaction) at 37° C. for 0 minute or 30 minutes in the presence of 1 mmol/L NADPH in 0.2 mL of a buffer (50 mmol/L tris-HCl pH 7.4, 150 mmol/L potassium chloride, 10 mmol/L magnesium chloride) containing 0.5 mg protein/mL of human liver microsomes. After the reaction, 50 μL of the reaction solution was added to 100 μL of a methanol/acetonitrile 1/1 (v/v), mixed and centrifuged at 3000 rpm for 15 minutes. The test compound in the supernatant was quantified by LC/MS/MS, and a remaining amount of the test compound after the reaction was calculated, letting a compound amount at 0 minute reaction time to be 100%.

[5] = target: CYP3A4 (Homo sapiens (Human), UniProt P08684); assay: CYP3A4 fluorescent MBI test; type: in vitro ADME; settings: pre-reaction time 0 or 30 minutes; substrate 7-BFC; CYP3A4 expressed in Escherichia coli
Protocol: The CYP3A4 fluorescent MBI test is a test of investigating enhancement of CYP3A4 inhibition of a compound by a metabolism reaction, and the test is performed using, as CYP3A4 enzyme expressed in Escherichia coli and employing, as an index, a reaction in which 7-benzyloxytrifluoromethylchmarin (BFC) is debenzylated by the CYP3A4 enzyme to produce a metabolite, 7-hydroxytrifluoromethylchmarin (HFC) emitting fluorescent light.
The reaction conditions were as follows: substrate, 5.6 μmol/L 7-BFC; pre-reaction time, 0 or 30 minutes; reaction time, 15 minutes; reaction temperature, 25° C.
An enzyme in a K-Pi buffer (pH 7.4) and a test drug solution as a pre-reaction solution were added to a 96-well plate at the composition of the pre-reaction, a part of it was transferred to another 96-well plate so that it was 1/10 diluted by a substrate in a K-Pi buffer, NADPH as a co-factor was added to initiate a reaction as an index (without preincubation) and, after a predetermined time of a reaction, acetonitrile: 0.5 mol/L Tris (trishydroxyaminomethane)=4:1 was added to stop the reaction. In addition, NADPH was added to a remaining preincubation solution to initiate a preincubation (with preincubation) and, after a predetermined time of a preincubation, a part was transferred to another plate so that it was 1/10 diluted with a substrate and a K-Pi buffer to initiate a reaction as an index, After a predetermined time of a reaction, acetonitrile: 0.5 mol/L Tris (trishydroxyaminomethane)=4:1 was added to stop the reaction. For the plate on which each index reaction had been performed, a fluorescent value of 7-HFC which is a metabolite was measured with a fluorescent plate reader. (Ex=420 nm, Em=535 nm).
Addition of only DMSO which is a solvent dissolving a drug to a reaction system was adopted as a control (100%), remaining activity (%) was calculated at each concentration of a test drug added as the solution, and IC50 was calculated by reverse-presumption by a logistic model using a concentration and an inhibition rate. When a difference between IC50 values is 5 or more, this was defined as (+) and, when the difference is 3 μmol/L or less, this was defined as (−).

[6] = artificial intestinal juice (phosphate buffer) with 1% DMSO, artificial intestinal juice in pH 8.8, 25 degrees Celsius for 16 hours

human P2X3 receptor, sequence (P56373 whole entry): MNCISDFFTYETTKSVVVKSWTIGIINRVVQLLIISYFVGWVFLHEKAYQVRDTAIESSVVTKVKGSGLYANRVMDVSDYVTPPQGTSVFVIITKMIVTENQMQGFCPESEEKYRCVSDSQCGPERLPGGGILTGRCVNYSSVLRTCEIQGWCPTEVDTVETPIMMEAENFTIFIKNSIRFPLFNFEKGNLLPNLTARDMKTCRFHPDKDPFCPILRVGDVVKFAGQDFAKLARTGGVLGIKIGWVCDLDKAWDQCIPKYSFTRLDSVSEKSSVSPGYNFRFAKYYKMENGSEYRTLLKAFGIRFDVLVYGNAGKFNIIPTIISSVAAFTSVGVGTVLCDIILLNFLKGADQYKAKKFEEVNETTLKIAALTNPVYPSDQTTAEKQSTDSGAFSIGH
CYP3A4, sequence (P08684 whole entry): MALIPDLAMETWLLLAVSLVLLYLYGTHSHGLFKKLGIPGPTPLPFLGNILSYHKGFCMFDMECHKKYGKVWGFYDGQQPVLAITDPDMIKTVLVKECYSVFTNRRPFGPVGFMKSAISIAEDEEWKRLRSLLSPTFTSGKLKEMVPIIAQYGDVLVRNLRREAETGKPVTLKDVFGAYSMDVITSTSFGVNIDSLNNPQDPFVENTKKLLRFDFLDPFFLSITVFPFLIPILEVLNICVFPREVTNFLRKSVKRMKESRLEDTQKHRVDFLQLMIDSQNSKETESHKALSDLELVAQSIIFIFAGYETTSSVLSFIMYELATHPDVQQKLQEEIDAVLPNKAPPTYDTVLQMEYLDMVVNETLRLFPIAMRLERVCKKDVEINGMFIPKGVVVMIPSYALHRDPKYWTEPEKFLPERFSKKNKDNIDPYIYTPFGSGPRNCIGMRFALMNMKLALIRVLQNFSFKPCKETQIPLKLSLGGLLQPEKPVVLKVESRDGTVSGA

SMILES	IC50 [1]	other results
Cc1cc(Nc2cc(=O)n(C[C@H](C)C(=O)O)c(=O)n2Cc2ccc(Cl)cc2)ccc1OC(C)C [I-215]	0.024 µM	bioavailability [2]: 49.7%
Cc1nc2ccc(Nc3nc(=O)c(C(=O)NC4CCOCC4)cn3Cc3ccc(Cl)cc3)cc2s1 [I-286]	0.008 µM	bioavailability [2]: 41.7%
CC(C)Oc1ccc(Nc2nc(=O)c(CCC(=O)O)cn2Cc2ccc(Cl)cc2)cc1Cl [I-117]	–	solubility at 16 h [3, 6]: > 50 µM
CC(C)Oc1ccc(Nc2cc(=O)n(CC(C)(C)C(=O)O)c(=O)n2Cc2ccc(Cl)cc2)cc1F [I-021]	0.019 µM	bioavailability [2]: 49.1%
CC(=O)N1CCC(C(=O)Nc2cnc(Nc3ccc4nc(C)sc4c3)n(Cc3ccc(Cl)cc3)c2=O)CC1 [I-356]	0.018 µM	solubility at 16 h [3, 6]: > 50 µM
CC(C)Oc1ccc(Nc2ncc(NC(=O)NC3CCOCC3)c(=O)n2Cc2ccc(Cl)cc2)cc1F [I-289]	0.007 µM	remaining rate [4]: 89%
Cc1nc2ccc(Nc3nc(=O)c(C(=O)NCCCO)cn3Cc3ccc(Cl)cc3)cc2s1 [I-299]	0.111 µM	solubility at 16 h [3, 6]: > 50 µM
Cc1ncc(Oc2ccc(Nc3ncc(NC(=O)C4CCOCC4)c(=O)n3Cc3ccc(Cl)cc3)cc2)cc1F [I-313]	0.003 µM	bioavailability [2]: 28.5%
O=C(O)c1cccc(Oc2ccc(Nc3ncc(NC(=O)C4CCOCC4)c(=O)n3Cc3ccc(Cl)cc3)cc2)c1 [I-359]	0.002 µM	IC50 difference [5]: < 3 µM; remaining rate [4]: 101%
CCn1c(=O)cc(Nc2ccc(Oc3cncc(C(=O)O)c3)cc2)n(Cc2ccc(Cl)cc2)c1=O [I-315]	0.006 µM	IC50 difference [5]: < 3 µM; remaining rate [4]: 105%
CC(C)Oc1ccc(Nc2cc(=O)n(CC(=O)NCCO)c(=O)n2Cc2ccc(Cl)cc2)cc1F [I-112, 1-(4-chlorobenzyl)-6-(3-fluoro-4-isopropoxyphenylamino)-3-(2-hydroxyethylcarbamoylmethyl)pyrimidine-2,4(1H,3H)-dion]	0.014 µM	solubility at 16 h ([3]; 1% DMSO, artificial intestinal juice in pH 8.8, 25 degrees Celsius for 16 hours): > 50 µM
CCOC(=O)c1cn(Cc2ccc(Cl)cc2)c(Nc2ccc(OC(C)C)c(F)c2)nc1=O [I-131, 1-(4-chlorobenzyl)-2-(3-fluoro-4-isopropoxyphenylamino)-5-(ethoxycarbonyl)pyrimidine-4(1H)-one]	–	remaining rate [4]: 92%
C=Cc1c(C)nc(Nc2ccc3nc(C)sc3c2)n(Cc2ccc(Cl)cc2)c1=O [I-350]	0.385 µM	–
CC(C)Oc1ccc(Nc2ncc(NC(=O)C(CO)CO)c(=O)n2Cc2ccc(Cl)cc2)cc1F [I-288]	0.017 µM	–
CC(C)Oc1ccc(Nc2ncc(NC(=O)C3CCOCC3)c(=O)n2Cc2ccc(Cl)cc2)cc1Cl [I-236]	0.006 µM	–
CCOC(=O)c1cn(Cc2ccc(Cl)cc2)c2cc(Nc3ccccc3)ccc2c1=O [I-148, 1-(4-chlorobenzyl)-7-(phenylamino)-3-(ethoxycarbonyl)quinoline-4(1H)-one]	0.324 µM	–
CC(=O)Nc1cnc(Nc2ccc3nc(C)sc3c2)n(Cc2ccc(Cl)cc2)c1=O [I-297]	0.112 µM	–
CC(C)Oc1ccc(Nc2ncc(NC(=O)c3cc[nH]c(=O)c3)c(=O)n2Cc2ccc(Cl)cc2)cc1F [I-275]	0.011 µM	–

SMILES	IC50 [1]	other results
COC(=O)C(C)(C)Cn1c(=O)cc(Nc2cccc(C(F)(F)F)c2)n(Cc2ccc(Cl)cc2)c1=O [I-107]	0.051 µM	–
CC(C)Oc1ccc(Nc2ncc(NC(=O)c3ccn(C)c(=O)c3)c(=O)n2Cc2ccc(Cl)cc2)cc1F [I-279]	0.139 µM	–
CC(C)Oc1ccc(Nc2ncc(NCCCO)c(=O)n2Cc2ccc(Cl)cc2)cc1F [I-223]	0.724 µM	–
Cc1nc2ccc(Nc3nc(=O)c(C(=O)NC(C)C)cn3Cc3ccc(Cl)cc3)cc2s1 [I-307]	0.04 µM	–
CCOC(=O)CCC1CN(Cc2ccc(Cl)cc2)C(Nc2ccc(OC(C)C)c(Cl)c2)=NC1=O (stereo not drawn) [I-116]	0.315 µM	–
CC(C)Oc1ccc(Nc2cc(=O)n(CC(CO)CO)c(=O)n2Cc2ccc(Cl)cc2)cc1Cl [I-099]	0.006 µM	–
CCOC(=O)c1cn(Cc2ccc(Cl)cc2)c(Nc2ccc(OC(C)C)c(Cl)c2)nc1=O [I-125]	0.243 µM	–
COC(=O)C(C)(C)Cn1c(=O)cc(Nc2cccc(C(F)(F)F)n2)n(Cc2ccc(Cl)cc2)c1=O [I-108, 1-(4-chlorobenzyl)-3-(2-methoxycarbonyl-2-methylpropyl)-6-(6-trifluoromethyl-2-pyridylamino)pyrimidine-2,4(1H,3H)-dion]	0.061 µM	–
Cc1nc2ccc(Nc3nc(C)c(Br)c(=O)n3Cc3ccc(Cl)cc3)cc2s1 [I-349]	0.28 µM	–
CC(C)Oc1ccc(Nc2nc(=O)c(C(=O)NC(CO)CO)cn2Cc2ccc(Cl)cc2)cc1F [I-150]	0.12 µM	–
CC(C)Oc1ccc(Nc2ncc(NC(=O)C(C)(C)O)c(=O)n2Cc2ccc(Cl)cc2)cc1F [I-268]	0.004 µM	–
CC(C)Oc1ccc(Nc2ncc(C#N)c(=O)n2Cc2ccc(Cl)cc2)cc1F [I-259]	0.436 µM	–
COC(=O)[C@@H](C)NC(=O)c1cnc(Nc2ccc(OC(C)C)c(F)c2)n(Cc2ccc(Cl)cc2)c1=O [I-197]	0.098 µM	–
CC(C)Oc1ccc(Nc2ncc(/C=C/C(=O)O)c(=O)n2Cc2ccc(Cl)cc2)cc1Cl [I-139, 2-(3-chloro-4-isopropoxyphenylamino)-3-(4-chlorobenzyl)-5-(2-hydroxycarbonylethenyl) pyrimidine-4(3H)-one]	0.331 µM	–
CC(C)Oc1ccc(Nc2ccc(Cc3nc(N(C)C)oc(=O)c3Cl)cc2)cc1F [I-063]	0.688 µM	–
Cc1nc2ccc(Nc3nc(=O)c(C(=O)NC4COC4)cn3Cc3ccc(Cl)cc3)cc2s1 [I-308]	0.133 µM	–
CC(C)Oc1ccc(Nc2nc(=O)c(N3CCOCC3)cn2Cc2ccc(Cl)cc2)cc1F [I-209]	0.397 µM	–
CCOC(=O)/C=C/c1cn(Cc2ccc(Cl)cc2)c(Nc2ccc(OC(C)C)c(Cl)c2)nc1=O [I-098]	0.233 µM	–
